Results as given in patent US9308200B2, “Dry powder formulation comprising a phosphodiesterase inhibitor” (CHIESI FARMACEUTICI S.p.A., priority 2010, dated 2016).

Test system: OVA-induced eosinophilia in BALF
Test: Acute model of lung inflammation: OVA-induced eosinophilia in BALF of sensitized rats
Type: in vivo
Settings: male Brown-Norway rats; micronized C2 blended with lactose, intratracheal single dose 2 hours before antigen aerosol; range in brackets 0.016 to 0.051
Method: The potency of one of the preferred compounds of the present invention was evaluated in vivo in an acute model of lung inflammation following a method described in Eur. J. Pharmacol., 2002 Feb. 22; 437(3):187-94 (which is incorporated herein by reference in its entirety), with minor modifications. Briefly, male Brown-Norway rats (150-200 g) were sensitized by intraperitoneal injection of a suspension containing ovalbumin (OVA, 1 mg/rat) and Al(OH)3 (100 mg/rat) in 1 mL of saline for 3 consecutive days. Two-three weeks later, the airway inflammation was induced by inhaled antigen (OVA, 1% in saline). Vehicle-control treated animals were exposed to an aerosol of saline. […] For the detection of inhibitory potency, micronized compound C2 was blended with lactose at different concentrations and administered by the intratracheal route as single dose 2 hours before antigen aerosol.
A dose-response curve of the inhibitory effect of the test compound on OVA-induced eosinophilia in BALF was performed and the ED50 dose of compound C2 was taken as a measure of potency in this bioassay.

## CS(=O)(=O)Nc1ccc(C(=O)OC(Cc2c(Cl)c[n+]([O-])cc2Cl)c2ccc(OC(F)F)c(OCC3CC3)c2)cc1OCC1CC1 (single isomer, unassigned; (-)) [Compound C2, (−)-3-Cyclopropylmethoxy-4-methanesulfonylamino-benzoic acid 1-(3-cyclopropylmethoxy-4-difluoromethoxy-phenyl)-2-(3,5-dichloro-1-oxy-pyridin-4-yl)-ethyl ester]
  ED50 dose, inhibition of OVA-induced eosinophilia in BALF: 0.028 µmol/kg
